Results taken from ChEMBL document CHEMBL5137133, “Effects of the Anthocyanin Hirsutidin on Gastric Ulcers: Improved Healing through Antioxidant Mechanisms” (J Nat Prod, 2022).
Calls of active or inactive are those of the source. The rule behind the calls is not given here.

How the values were obtained:
[1] = test system: Rattus norvegicus; experiment: Anti-ulcer activity in Wistar rat model of ethanol-induced gastric ulcer assessed as increase in PGE2 levels at 10 to 20 mg/kg, po administered once daily for 7 days followed by ethanol injection after 1 hr post last dose and measured after 4 hrs by ELISA; assay type: functional, organism-based; settings: dose 10-20 mg/kg, time 173.0 hrs
[2] = test system: Rattus norvegicus; experiment: Anti-ulcer activity in Wistar rat model of ethanol-induced gastric ulcer assessed as attenuation of TNFalpha level at 10 to 20 mg/kg, po administered once daily for 7 days followed by ethanol injection after 1 hr post last dose and measured after 4 hrs by ELISA; assay type: functional; settings: dose 10-20 mg/kg, time 173 hrs
[3] = test system: Rattus norvegicus; experiment: Anti-ulcer activity in Wistar rat model of ethanol-induced gastric ulcer assessed as attenuation of AST level at 10 to 20 mg/kg, po administered once daily for 7 days followed by ethanol injection after 1 hr post last dose and measured after 4 hrs by ELISA; assay type: functional; settings: dose 10-20 mg/kg, time 173 hrs
[4] = test system: Rattus norvegicus; experiment: Anti-ulcer activity in Wistar rat model of ethanol-induced gastric ulcer assessed as increase in gastric pH at 20 mg/kg, po administered once daily for 7 days followed by ethanol injection after 1 hr post last dose; assay type: functional; settings: time 173 hrs
[5] = test system: Rattus norvegicus; experiment: Anti-ulcer activity in Wistar rat model of ethanol-induced gastric ulcer assessed as attenuation of ALT level at 10 to 20 mg/kg, po administered once daily for 7 days followed by ethanol injection after 1 hr post last dose and measured after 4 hrs by ELISA; assay type: functional; settings: dose 10-20 mg/kg, time 173 hrs
[6] = test system: Rattus norvegicus; experiment: Anti-ulcer activity in Wistar rat model of ethanol-induced gastric ulcer assessed as attenuation of ALP level at 10 to 20 mg/kg, po administered once daily for 7 days followed by ethanol injection after 1 hr post last dose and measured after 4 hrs by ELISA; assay type: functional; settings: dose 10-20 mg/kg, time 173 hrs
[7] = test system: Rattus norvegicus; experiment: Anti-ulcer activity in Wistar rat model of ethanol-induced gastric ulcer assessed as reduction in serum IL-6 level at 10 to 20 mg/kg, po administered once daily for 7 days followed by ethanol injection after 1 hr post last dose and measured after 4 hrs by ELISA; assay type: functional, organism-based; settings: dose 10-20 mg/kg, time 173.0 hrs
[8] = test system: Rattus norvegicus; experiment: Anti-ulcer activity in Wistar rat model of ethanol-induced gastric ulcer assessed as reduction in MPO levels at 10 to 20 mg/kg, po administered once daily for 7 days followed by ethanol injection after 1 hr post last dose and measured after 4 hrs; assay type: functional, organism-based; settings: dose 10-20 mg/kg, time 173.0 hrs
[9] = Acute toxicity in po dosed mouse assessed as mortality; assay type: organism-based; settings: in vivo
[10] = test system: Rattus norvegicus; experiment: Anti-ulcer activity in Wistar rat model of ethanol-induced gastric ulcer assessed as increase in gastric pH at 10 mg/kg, po administered once daily for 7 days followed by ethanol injection after 1 hr post last dose and measured after 4 hrs; assay type: functional; settings: time 173 hrs
[11] = Acute toxicity in po dosed mouse assessed as morbidity; assay type: organism-based; settings: in vivo
[12] = test system: Rattus norvegicus; experiment: Anti-ulcer activity in Wistar rat model of ethanol-induced gastric ulcer assessed as reduction in ulcer score index at 10 to 20 mg/kg, po administered once daily for 7 days followed by ethanol injection after 1 hr post last dose and measured after 4 hrs; assay type: functional, organism-based; settings: dose 10-20 mg/kg, time 173.0 hrs
[13] = test system: Rattus norvegicus; experiment: Anti-ulcer activity in Wistar rat model of ethanol-induced gastric ulcer assessed as protection against gastric tissue damages at 10 to 20 mg/kg, po administered once daily for 7 days followed by ethanol injection after 1 hr post last dose and measured after 4 hrs by ELISA; assay type: functional, organism-based; settings: dose 10-20 mg/kg, time 173.0 hrs
[14] = test system: Rattus norvegicus; experiment: Anti-ulcer activity in Wistar rat model of ethanol-induced gastric ulcer assessed as reduction in MDA levels at 10 to 20 mg/kg, po administered once daily for 7 days followed by ethanol injection after 1 hr post last dose and measured after 4 hrs by Wills method; assay type: functional; set-up: scale not given: the % may be the effect or the level left; settings: dose 10-20 mg/kg, time 173 hrs
[15] = test system: Rattus norvegicus; experiment: Anti-ulcer activity in Wistar rat model of ethanol-induced gastric ulcer assessed as reduction in total acidity levels at 10 to 20 mg/kg, po administered once daily for 7 days followed by ethanol injection after 1 hr post last dose and measured after 4 hrs; assay type: functional; set-up: scale not given: the % may be the effect or the level left; settings: dose 10-20 mg/kg, time 173 hrs
[16] = test system: Rattus norvegicus; experiment: Anti-ulcer activity in Wistar rat model of ethanol-induced gastric ulcer assessed as restoration of endogenous CAT levels at 10 to 20 mg/kg, po administered once daily for 7 days followed by ethanol injection after 1 hr post last dose and measured after 4 hrs by H2O2 decomposition assay; assay type: functional, organism-based; settings: dose 10-20 mg/kg, time 173.0 hrs
[17] = test system: Rattus norvegicus; experiment: Anti-ulcer activity in Wistar rat model of ethanol-induced gastric ulcer assessed as reduction in serum IL-1beta level at 10 to 20 mg/kg, po administered once daily for 7 days followed by ethanol injection after 1 hr post last dose and measured after 4 hrs by ELISA; assay type: functional, organism-based; settings: dose 10-20 mg/kg, time 173.0 hrs
[18] = test system: Rattus norvegicus; experiment: Anti-ulcer activity in Wistar rat model of ethanol-induced gastric ulcer assessed as restoration of endogenous SOD levels at 10 to 20 mg/kg, po administered once daily for 7 days followed by ethanol injection after 1 hr post last dose and measured after 4 hrs; assay type: functional, organism-based; settings: dose 10-20 mg/kg, time 173.0 hrs
[19] = test system: Rattus norvegicus; experiment: Anti-ulcer activity in Wistar rat model of ethanol-induced gastric ulcer assessed as restoration of endogenous GSH levels at 10 to 20 mg/kg, po administered once daily for 7 days followed by ethanol injection after 1 hr post last dose and measured after 4 hrs by Ellman's method; assay type: functional, organism-based; settings: dose 10-20 mg/kg, time 173.0 hrs
[20] = test system: Rattus norvegicus; experiment: Anti-ulcer activity in Wistar rat model of ethanol-induced gastric ulcer assessed as protection of NO depletion at 10 to 20 mg/kg, po administered once daily for 7 days followed by ethanol injection after 1 hr post last dose and measured after 4 hrs by ELISA; assay type: functional; settings: dose 10-20 mg/kg, time 173 hrs

COc1cc(O)c2cc(O)c(-c3cc(OC)c(O)c(OC)c3)[o+]c2c1
Activity [1]: Active | Activity [2]: 27.59% | Activity [3]: 35.3% | pH [4]: 6.36 | Activity [5]: 38.85% | Activity [6]: 47.68% | Activity [7]: Active | Activity [8]: Active | Activity [9]: Non-Toxic | pH [10]: 7.17 | Activity [11]: Non-Toxic | Activity [12]: Active | Activity [13]: Active | Activity [14]: 49.25% | Activity [15]: 37.76% | Activity [16]: Active | Activity [17]: Active | Activity [18]: Active | Activity [19]: Active | Activity [20]: 85.1%
